Source: a melting point compilation (Tetko et al.; mined from patent text by program, amines drawn as free bases though some values may be those of a salt)

`C=Cc1cc(C(=O)OC)c(NC(C)=O)cc1C(F)(F)F` gave a melting point of 79 to 81 °C.
With `CCCc1c(OCC2Cc3cc(C(=O)CCC(=O)O)ccc3O2)ccc(C(C)=O)c1O` (stereo not given) the melting point was 80 °C.
For `COc1ccc(Cc2nc(N(C)CCO)c3c(C)c(C#N)sc3n2)cc1OC`, the melting point was 62 to 63 °C.
Work on `Cc1c(F)c(Oc2ccc(F)c(F)c2)nc(Oc2cc(C(F)(F)F)nn2C)c1F` yielded a melting point of 93 °C.
`CCc1nc2c(Cl)cc(F)c([N+](=O)[O-])c2s1` showed a melting point of 70 to 73 °C.
`O=[N+]([O-])c1ccc(-c2nc3cc(OCc4ccccc4)ccc3s2)c(Cl)c1` showed a melting point of 156 to 157 °C.
With `COc1ccc(NC(=O)c2ccc(F)c(F)c2)cc1N` the melting point was 148 to 151 °C.
In the case of `CCc1cc(C(=O)c2ccccc2Cl)c(-n2nnnc2CNC(=O)c2cc3ccccc3[nH]2)s1`, the melting point is reported as 146 to 149 °C.
`CCN(CC)C(=O)c1ccc(C)c(-c2nc(S(C)(=O)=O)nc3c2CNC(=O)N3c2c(F)cccc2F)c1` showed a melting point of 132 to 135 °C.
Work on `CN1C(=O)CCC2(C)c3ccc(CSc4ccccc4)cc3CCC12` (stereo not given) yielded a melting point of 144 to 146 °C.
Molecule `CC(=O)Nc1ccc2[nH]c(C=CC(=O)O)cc2c1` has a melting point of 238 to 239 °C.
In the case of `CCN(C(C)=O)c1cccc(-c2ccnc3c([N+](=O)[O-])cnn23)c1`, the melting point is reported as 176 to 178 °C.
`COc1cc(OC)nc(NC(=O)NS(=O)(=O)c2cc(N)ccc2C(=O)N(C)C)n1` showed a melting point of 192 to 193 °C.
`S=C1CNCCN1Cc1ccccc1` gave a melting point of 70 to 73 °C.
`O=C(Nc1ccc(Oc2ccnc(NC3CCC3)n2)c2ccccc12)c1cc(F)cc(N2CCCCC2)c1` gave a melting point of 112 to 114 °C.
In the case of `COC(=O)c1cccc2nc(N3CCOCC3)n(Cc3ccc(-c4ccccc4)c(-c4nnn[nH]4)c3)c12`, the melting point is reported as 163 to 167 °C.
`c1ccc(CCN2CCN(c3n[nH]c4ccccc34)CC2)cc1` gave a melting point of 118 to 120 °C.
In the case of `CCN(c1ccc(C#N)cc1)S(=O)(=O)c1ccc(C)cc1`, the melting point is reported as 85.4 to 86.6 °C.
Molecule `COc1ccc(-n2nc(Cl)cc2-c2ccc(OCCNC(N)=O)cc2)cc1` has a melting point of 140 to 142 °C.
For `CP(=O)(O)CC1CC(Cl)=NO1` (stereo not given), the melting point was 116 °C.
`C#CCNC(=S)Cc1ccccn1` showed a melting point of 62 to 63 °C.
Molecule `COC(=O)c1cccc(CBr)c1[N+](=O)[O-]` has a melting point of 91 to 95 °C.
For `CCN1CCCCC1CCc1ccccc1NC(=O)C=Cc1ccccc1` (stereo not given), the melting point was 120 to 122 °C.
Work on `O=C(Nc1ccc(-n2nc(C(F)(F)F)cc2C2CC2)cc1)c1c(F)cccc1F` yielded a melting point of 188 to 191 °C.
`Cc1oc2c(-n3c(=O)cc(C(F)(F)F)n(C)c3=O)ccc(Cl)c2c1[N+](=O)[O-]` gave a melting point of 174 to 175 °C.
`NC(=O)[C@@H]1[C@H](Nc2c(Br)cnc3[nH]c(-c4ccccc4-n4cccn4)nc23)[C@H]2C=C[C@@H]1C2` showed a melting point of 120 °C.
For `Cn1c(C=NNCCO)cnc1[N+](=O)[O-]`, the melting point was 138 to 140 °C.
Molecule `CSc1nc(C#N)c(C#N)nc1SC` has a melting point of 139 to 142 °C.
With `COC(=O)NCCSc1cccc2nccn12` the melting point was 198 to 200 °C.
Work on `CCn1cc(C(=O)O)c(=O)c2cc(F)c(-c3ccnc(CNC(=O)OCc4ccccc4)n3)c(F)c21` yielded a melting point of 195 to 196 °C.
Molecule `N#Cc1cccc(C=Cc2ccc(Cl)cc2)n1` has a melting point of 113 to 115 °C.
With `CCS(=O)(=O)Nc1cc(-n2nc3n(c2=O)CCS3)c(F)cc1C#N` the melting point was 209 to 211 °C.
`Cc1cc(S)n2nc(CC(=O)O)nc2n1` gave a melting point of 253 to 255 °C.
Molecule `CCOC(=O)C1CC(O)CN1C(=O)c1ccc(OC)c(OC)c1` (stereo not given) has a melting point of 128 °C.
Work on `O=[N+]([O-])c1cccc(C2=NCc3n[nH]nc3-c3ccccc32)c1` yielded a melting point of 223 to 225 °C.
For `COc1cccc([C@H]2O[C@H](CC(=O)NCc3cccc(CCC(=O)O)c3)C(=O)N(CC(C)(C)CO)c3ccc(Cl)cc32)c1OC`, the melting point was 177 to 178 °C.
With `COc1ccc2nn(C)cc2c1C1CC1CNC(C)=O` (stereo not given) the melting point was 104 to 105 °C.
`CC(C)C(=O)N[C@@H](CSC(=O)c1ccccc1)C(=O)NCCSC(=O)C(C)(C)C` showed a melting point of 123 to 124 °C.
`O=C(Nc1ccc(I)cc1)N[C@H]1C[C@H](C(=O)O)Nc2cc(Cl)cc(Cl)c21` (relative stereo) gave a melting point of 224 to 226 °C.
Work on `COC(=O)NC(C)(C)c1ccc(CC#N)cc1` yielded a melting point of 88 to 90 °C.
`CCC(=O)C(CCCCCl)NC(=O)c1ccc(C)cc1` (stereo not given) gave a melting point of 85 to 86 °C.
In the case of `CC1(C2CCCC2)Cc2cc(OCCCCCCC(=O)O)c(Cl)c(Cl)c2C1=O` (stereo not given), the melting point is reported as 107 to 110 °C.
Molecule `N#Cc1nn(-c2c(Cl)cccc2Cl)c(N)c1-c1ccco1` has a melting point of 223 °C.
Work on `c1cc(-c2nccs2)nc(C2OCCO2)c1` yielded a melting point of 71 °C.
Molecule `O=[N+]([O-])c1ccc2c(c1)CCN(Cc1ccccc1)C2` has a melting point of 76 to 78 °C.
Work on `CN(C)CCOc1ccc(C=NCCN=Cc2ccc(OCCN(C)C)cc2O)c(O)c1` yielded a melting point of 92 to 94 °C.
With `CC(C)c1cccc(C(C)C)c1N=c1cccc(-c2ccccc2)[nH]1` the melting point was 142 to 144 °C.
Molecule `N#Cc1cc(-c2ccoc2)c2ccc(COc3cc(F)cc(-c4cccnc4)c3)cc2n1` has a melting point of 193 to 195 °C.
Molecule `COC(=O)Oc1ccc(OC)cc1` has a melting point of 33 to 34 °C.
For `C=CCN(CC=C)Cc1noc(-c2ncn3c2CN(C)C(=O)c2c(Cl)cccc2-3)n1`, the melting point was 125 to 130 °C.
In the case of `CNC(=O)Nc1ccc(Oc2ccc3sncc3c2)cc1`, the melting point is reported as 178 °C.
With `O=C(O)C1CSC(c2ccc(OCCO[N+](=O)[O-])cc2)N1` (stereo not given) the melting point was 139 to 141 °C.
`O=C1N(Cc2ccc(Cl)cc2)c2ccccc2C1(O)c1cc(OCc2ccccc2)ccc1O` (stereo not given) showed a melting point of 172 to 175 °C.
For `CC(C)(C)c1cc(SCCC(=O)O)cc(C(C)(C)C)c1O`, the melting point was 108 to 110 °C.
`CCc1nc2c(N)nc3ccc(-c4cccnc4)cc3c2n1CC(C)C` showed a melting point of over 250 °C.
Molecule `CCOCc1nnc2c(C)c(Cl)ccn12` has a melting point of 92.9 °C.
For `Cc1nc2cc(C#N)ccc2s1`, the melting point was 158 to 160 °C.
For `COc1ccc(-c2c(Cl)c(CNC3CC3)nc3sc4c(c23)CCN(Cc2ccccc2)C4)cc1OC`, the melting point was 131 to 132 °C.
With `CC1(C)CCC(C)(C)c2cc(C(Br)C(Br)c3ccc(C#N)cc3)ccc21` (stereo not given) the melting point was 174 to 175 °C.
With `O=c1c2ccccc2ccc2ccc(S(=O)(=O)C(F)(F)F)cc12` the melting point was 145 to 149 °C.
For `N#Cc1c(Br)c(Br)n(Cc2ccccc2)c1-c1ccc(C(F)(F)F)cc1`, the melting point was 145 to 147 °C.
In the case of `Cc1ccc(C(O)(Cc2nnnn2C)c2ccc(C)cc2C)c(C)c1`, the melting point is reported as 175 to 177 °C.
With `O=C(O)CCCc1cc2cc(Cl)ccc2n1S(=O)(=O)c1ccc2ccccc2c1` the melting point was 166 °C.
Molecule `O=C(Nc1cccc(C(F)(F)F)c1)c1ccccc1C(c1ccc(O)cc1)c1ccc(O)cc1` has a melting point of 198 to 200 °C.
`CC1OC(n2c(Cl)c(C#N)c3cc(Cl)c(Cl)cc32)C(O)C1O` (stereo not given) gave a melting point of 227 to 228 °C.
With `CC(C)(C)c1ccc2c(c1)C(C(=O)O)=Cc1ccccc1O2` the melting point was 72 °C.
Work on `COC(=O)c1ccc(CN([C@@H](CO)c2ccccc2)S(=O)(=O)c2ccc(Cl)cc2)cc1` yielded a melting point of 104 to 106 °C.
Work on `CCCn1cc(Cc2ccc(C(=O)NS(=O)(=O)c3ccccc3C)cc2OC)c2cc(CC3CCN(C)C3=O)ccc21` (stereo not given) yielded a melting point of 103 to 115 °C.
`CCO/C(=N/O)C1Cc2cc(C(=O)c3ccccc3F)c(O)c(Cl)c2O1` (stereo not given) showed a melting point of 171 to 172 °C.
`OC(c1cc(Cl)cc(Cl)c1)C(F)(F)C(F)(F)F` (stereo not given) showed a melting point of 71 to 73 °C.
With `CN(C)CC1(C2(O)CCCCC2)Cc2cc3c(cc21)N(C)CC3` (stereo not given) the melting point was 121 to 124 °C.
`Cc1ccc(CCc2ccccc2Br)c(NC=O)c1` gave a melting point of 167 to 169 °C.
Work on `COc1ccc(Cl)cc1S(=O)(=O)N1C2CCC1CN(CC(=O)Nc1ccccc1C)C2` yielded a melting point of 180 to 181 °C.
`CCc1cc(-c2ccc(OC)cc2)ccc1[N+](=O)[O-]` showed a melting point of 94 to 95 °C.
Work on `c1ccc(CN2C[C@@H]3SCCC(c4ccccc4)(c4ccccc4)[C@@H]3C2)cc1` (racemic) yielded a melting point of 130 °C.
Work on `CC1(C)CCCC(C)(C)N1CCO` yielded a melting point of 93 to 94 °C.
In the case of `CC(C)(C)OC(=O)CC1(CC(=O)O)CCC(=O)Nc2ccccc21` (stereo not given), the melting point is reported as 117 to 119 °C.
For `CC1=CC(COC(c2ccccc2)(c2ccccc2)c2ccccc2)O[C@H]1c1coc2c(N)ncnc12` (stereo not given in full), the melting point was 128 to 132 °C.
For `COc1cc(C)c(O)c(CCCCCCCCCCO)n1`, the melting point was 80 to 81 °C.
Molecule `CC(C)(c1ccccc1)n1nnc(-c2ccccc2-c2ccc(CO)cc2)n1` has a melting point of 117 to 120 °C.
For `COc1cc(-c2oc3cc(I)ccc3c(=O)c2O)cc(OC)c1OCc1ccccc1`, the melting point was 169 to 171 °C.
For `NC(=O)c1c(N)cccc1OCCO`, the melting point was 149 to 151 °C.
With `CNC(=O)N(O)C(C)c1ccc(C)c(Br)c1` (stereo not given) the melting point was 107 to 108 °C.
Work on `Cc1ccc(NC(=O)OC2CCCCC2)cc1NC(=O)OC1CCCCC1` yielded a melting point of 156 °C.
`CCCNC(=O)C(C#N)(CC)c1ccccc1` (stereo not given) showed a melting point of 55 to 56 °C.
With `O=C(NCCCc1ccncc1)N(CCC12CC3CC(CC(C3)C1)C2)Cc1ccccc1` the melting point was 130 to 135 °C.
For `Nc1ccc2c(c1)CN(CCC1CCCCN1S(=O)(=O)c1cccc3ccccc13)CC2` (stereo not given), the melting point was 212 to 218 °C.
In the case of `CCn1cc(C(=O)NCc2ccc(Cl)cc2)c(=O)c2cc(CN3CCOCC3)sc21`, the melting point is reported as 194 to 196 °C.
`CCCCNC(=O)Nc1ccc(OCC2CC2)cc1C(=O)NCC1CCN(C(c2ccccc2)c2ccccc2)CC1` gave a melting point of 190 to 192 °C.
`N#CC1=C(c2ccc(Br)s2)Nc2n[nH]cc2C1c1cccc2nonc12` (stereo not given) gave a melting point of 208 °C.
For `Cn1cnc(C(=O)N2CCC(NC(=O)Nc3ccc(C(F)(F)F)cc3)CC2)c1`, the melting point was 222 to 226 °C.
`Cc1cccc(Nc2n[nH]c3ncnc(NCc4ccccc4)c23)c1` showed a melting point of 200 to 201 °C.
`OC[C@@H](COc1ccccc1)OC1CCCCO1` (stereo not given in full) gave a melting point of 39 to 41 °C.
Work on `c1ccc(COc2ccc(C3CO3)nc2)cc1` (stereo not given) yielded a melting point of 45 to 47.5 °C.
`COc1ccc2[nH]c(C(=O)NCCN(C)C)c(-c3ccccc3F)c2c1` showed a melting point of 184 to 186 °C.
For `COc1ccc2sc(C3=C(C(C)(C)C)C(C)(C)CO3)cc2c1`, the melting point was 58 to 59 °C.
Work on `Cc1ccc(-c2ccc3c(c2)C=C(C(=O)Nc2ccc(CSCc4ccccc4)cc2)CCO3)cc1` yielded a melting point of 145 to 146 °C.
`OC1(c2ccccc2)CSC2=NCN(Cc3ccccc3)CN21` (stereo not given) gave a melting point of 97 to 99 °C.
`CS(=O)(=O)c1ccc(-c2sc(Br)cc2-c2ccc(F)cc2)cc1` showed a melting point of 141 to 145 °C.
`NC(=O)c1ncn2c1CN(C(=O)N1CCOCC1)c1ccccc1-2` gave a melting point of 220 to 221 °C.
